31 compounds from patent US5070089A, “Therapeutic agent for liver disease and piperazine derivatives” (Nippon Chemiphar Co., Ltd., priority 1988, dated 1991) can be followed below.

Assay [1] has as its system acute liver disease caused by CCl4 (Wister-strain rat). Description: Preventive action on deviation of GOT value and GPT value in vivo using model of acute liver disease caused by CCl4. The following applies: rat, 30 mg/kg, 3 hour before oral CCl4. Here is the method:
CCl4 in olive oil (concentration: 50%) was orally administered to a Wister-strain rat (body weight: 170-180 g) fasted for 24 hrs., at a dose of 1 ml/kg, to cause acute liver disease. […] For control group, 1.0% methylcellulose (MC) was administered in place of the piperazine derivative. For normal group, a simple olive oil was administered in place of the CCl4 -containing olive oil. For the administration, the piperazine derivative was employed in the form of a dispersion in aqueous MC solution (concentration: 1.0%). At 24 hours after the administration of CCl4, the rat was abdominally sectioned under ether anesthesia. From the abrominal large vein, a blood was collected. The collected blood was subjected to centrifugal separation at 3,000 r.p.m. for 10 min to obtain its plasma. […] The results are set forth in Table 4 in terms of a ratio (%) of suppression (prevention) of GOT or GPT. In Table 4, "***" means 90-100%, "**" means 60-90%, and "*" means 30-60%. The ratio of suppression is calculated according to the following equation. [formula]

Assay [2] deals with lipid peroxidation in rat hepatocyte. Description: Inhibitory action on lipid peroxidation (rat hepatocyte, TBA color formation, absorbance at 530 nm). The following applies: 37° C., 1 hour; for Inhibition ratio (at Final Concentration of Tested Compound) 10^-4 M: final concentration 10^-4 M, 100 µM; for Inhibition ratio (at Final Concentration of Tested Compound) 10^-5 M: final concentration 10^-5 M, 10 µM. The format is biochemical. How it is done: A hepatocyte was isolated from rat according to the method of Ui et al (Hiroshi Oka and Tadao Ui: "Isolated Cells--Experimental and Application",page 91). The determination of lipid peroxidation was performed using a died hepatocyte which had been frozen at -85° C. and stored at the temperature and which was melted when the experimental was done. […] The centrifugal tube was shaken at 37° C. for 1 hour for performing a reaction, and then placed into an ice-water bath to terminate the reaction. […] The centrifugal tube was taken out of the ice-water bath and placed in a water bath (kept at 95°-98° C.). The content of the tube was heated in the bath for 1 hour for developing color-formation. After the heating was complete, the content of the tube was cooled and subjected to centrifugal separation. The inhibitory action on lipid peroxidation of the sample was determined by measuring absorbance at 530 nm. The determined inhibitory action is expressed inhibition ratio by percent (%) calculated by the following equation: [formula] In Table 3, the number of the tested compound corresponds to the identical number set forth in Tables 1 and 2 for identifying the compounds of the invention.

[3] abbreviates: plasma GOT at 24 hours after CCl4, read-out: ratio (%) of suppression (prevention) of GOT.
The mark [4] stands for this setting: plasma GPT at 24 hours after CCl4, read-out: ratio (%) of suppression (prevention) of GPT.

SMILES strings stand for the structures. Where two headings read alike, the source gives them in different places.

For `CSC(=S)N1CCN(Cc2ccccc2)CC1` [Compound 1], the inhibition in vivo at 30 mg/kg in assay [1] (setting [3]) and in assay [1] (setting [4]) was 30 to 60% each time. `CSC(=S)N1CCN(Cc2ccccc2Cl)CC1` [Compound 2, Methyl 4-(2-chlorobenzyl)-1-piperazinecarbodithioate]: the inhibition in vivo at 30 mg/kg in assay [1] (setting [3]) was in the range of 30 to 60%. Turning to `CSC(=S)N1CCN(Cc2ccccc2C)CC1` [Compound 3, Methyl 4-(2-methylbenzyl)-1-piperazinecarbodithioate], the inhibition in vivo at 30 mg/kg in assay [1] (setting [3]) and in assay [1] (setting [4]) was 60 to 90% each time. Regarding `COc1cccc(CN2CCN(C(=S)SC)CC2)c1` [Compound 6, Methyl 4-(3-methoxybenzyl)-1-piperazinecarbodithioate], the inhibition in vivo at 30 mg/kg in assay [1] (setting [3]) and in assay [1] (setting [4]) was 90 to 100% in each case. On to `COc1ccc(CN2CCN(C(=S)SC)CC2)cc1` [Compound 7, Methyl 4-(4-methoxybenzyl)-1-piperazinecarbodithioate], for which the inhibition in vivo at 30 mg/kg in assay [1] (setting [3]) lay in the range of 60 to 90%; in assay [1] (setting [4]), 30 to 60%. The corresponding values for `CSC(=S)N1CCN(Cc2ccccc2SC)CC1` [Compound 9, Methyl 4-(2-methylthiobenzyl)-1-piperazinecarbodithioate] are 60 to 90% and 60 to 90%. Take `CSC(=S)N1CCN(Cc2ccccc2[N+](=O)[O-])CC1` [Compound 10, Methyl 4-(2-nitrobenzyl)-1-piperazinecarbodithioate]: the inhibition in vivo at 30 mg/kg in assay [1] (setting [3]) fell in the range of 60 to 90%; in assay [1] (setting [4]), 30 to 60%. Turning to `CSC(=S)N1CCN(Cc2cccc(O)c2O)CC1` [Compound 15, Methyl 4-(2,3-dihydroxybenzyl)-1-piperazinecarbodithioate], the inhibition in vivo at 30 mg/kg in assay [1] (setting [3]) and in assay [1] (setting [4]) was 90 to 100% each time. In the case of `COc1cccc(CN2CCN(C(=S)SC)CC2)c1O` [Compound 18, Methyl 4-(2-hydroxy-3-methoxybenzyl)-1-piperazinecarbodithioate], the inhibition in vivo at 30 mg/kg in assay [1] (setting [3]) and in assay [1] (setting [4]) was 60 to 90% throughout. As for `COc1ccc(O)c(CN2CCN(C(=S)SC)CC2)c1` [Compound 20, Methyl 4-(2-hydroxy-5-methoxybenzyl)-1-piperazinecarbodithioate], the inhibition in vivo at 30 mg/kg in assay [1] (setting [3]) and in assay [1] (setting [4]) was 60 to 90% each time. On to `CSC(=S)N1CCN(Cc2cc(OC(C)=O)ccc2O)CC1` [Compound 21, Methyl 4-(5-acetoxy-2-hydroxybenzyl)-1-piperazinecarbodithioate], for which the inhibition in vivo at 30 mg/kg in assay [1] (setting [3]) and in assay [1] (setting [4]) was 60 to 90% in each case.

In the case of `COc1ccc(CN2CCN(C(=S)SC)CC2)cc1OC` [Compound 31, Methyl 4-(3,4-dimethoxybenzyl)-1-piperazinecarbodithioate], the inhibition in vivo at 30 mg/kg in assay [1] (setting [3]) fell in the range of 60 to 90%; in assay [1] (setting [4]) it was 30 to 60%.

In the case of `CSC(=S)N1CCN(Cc2ccc(OC(C)=O)c(OC(C)=O)c2OC(C)=O)CC1` [Compound 34, Methyl 4-(2,3,4-triacetoxybenzyl)-1-piperazinecarbodithioate], the inhibition in vivo at 30 mg/kg in assay [1] (setting [4]) lay within 30 to 60%. As to `COc1ccc(CN2CCN(C(=S)SC)CC2)c(O)c1OC` [Compound 35, Methyl 4-(3,4-dimethoxy-2-hydroxybenzyl)-1-piperazinecarbodithioate], the inhibition in vivo at 30 mg/kg in assay [1] (setting [3]) and in assay [1] (setting [4]) was 60 to 90% throughout. For the compound `COc1cc(O)c(CN2CCN(C(=S)SC)CC2)c(OC)c1` [Compound 37, Methyl 4-[(4,6-dimethoxy-2-hydroxy)benzyl]-1-piperazinecarbodithioate], the inhibition in vivo at 30 mg/kg in assay [1] (setting [3]) and in assay [1] (setting [4]) was 60 to 90% in each case. With `CSC(=S)N1CCN(Cc2cc(O)c(O)c(O)c2)CC1` [Compound 40, Methyl 4-(3,4,5-trihydroxybenzyl)-1-piperazinecarbodithioate], in assay [2], the “Inhibition ratio (at Final Concentration of Tested Compound) 10^-4 M” value is given as 92.6%. Take `CSC(=S)N1CCN(Cc2cc(OC(C)=O)c(OC(C)=O)c(OC(C)=O)c2)CC1` [Compound 42, Methyl 4-(3,4,5-triacetoxybenzyl)-1-piperazinecarbodithioate]: in assay [2], the “Inhibition ratio (at Final Concentration of Tested Compound) 10^-4 M” value was found to be 71.6% and the “Inhibition ratio (at Final Concentration of Tested Compound) 10^-5 M” value came to 71.6%. With `CSC(=S)N1CCN(Cc2c(C)c(O)c(C)c(C)c2O)CC1` [Compound 46, Methyl 4-[(2,5-dihydroxy-3,4,6-trimethyl)benzyl]-1-piperazinecarbodithioate], the inhibition in vivo at 30 mg/kg in assay [1] (setting [3]) and in assay [1] (setting [4]) was 90 to 100% each time. With `COc1ccc(C(=O)N2CCN(C(=S)SC)CC2)c(OC)c1OC` [Compound 56, Methyl 4-(2,3,4-trimethoxybenzoyl)-1-piperazinecarbodithioate], the inhibition in vivo at 30 mg/kg in assay [1] (setting [3]) and in assay [1] (setting [4]) was 90 to 100% in each case. With `COc1ccc(CCN2CCN(C(=S)SC)CC2)c(OC)c1OC` [Compound 67, Methyl 4-{2-(2,3,4-trimethoxyphenyl)ethyl}-1-piperazinecarbodithioate], the inhibition in vivo at 30 mg/kg in assay [1] (setting [3]) and in assay [1] (setting [4]) was 30 to 60% in each case. For the compound `CSC(=S)N1CCN(CCc2ccc(O)c(O)c2O)CC1` [Compound 68, Methyl 4-{2-(2,3,4-trihydroxyphenyl)ethyl}-1-piperazinecarbodithioate], the inhibition in vivo at 30 mg/kg in assay [1] (setting [3]) and in assay [1] (setting [4]) was 60 to 90% throughout. As for `COc1ccc(C(=O)CN2CCN(C(=S)SC)CC2)c(OC)c1OC` [Compound 71, Methyl 4-{2-(2,3,4-trimethoxyphenyl)-2-oxo}ethyl-1-piperazinecarbodithioate], the inhibition in vivo at 30 mg/kg was in the range of 60 to 90% in assay [1] (setting [3]) and 30 to 60% in assay [1] (setting [4]). Regarding `CSC(=S)N1CCN(CC(=O)c2ccc(O)c(O)c2)CC1` [Compound 72, Methyl 4-{2-(3,4-dihydroxyphenyl)-2-oxo}ethyl-1-piperazinecarbodithioate], in assay [2], the “Inhibition ratio (at Final Concentration of Tested Compound) 10^-4 M” value is given as 74.8% and the “Inhibition ratio (at Final Concentration of Tested Compound) 10^-5 M” value is 58.2%.

On to `COc1cc(CN2CCN(C(=S)S)CC2)cc(OC)c1OC` [Compound 89, Sodium 4-(3,4-5-trimethoxybenzyl)-1-piperazinecarbodithioate], for which the “Inhibition ratio (at Final Concentration of Tested Compound) 10^-4 M” value in assay [2] (60 min) turned out to be 90.2%. In the case of `COc1ccc(CN2CCN(C(=S)S)CC2)c(OC)c1OC` [Compound 93, 4-(2,3,4-Trimethoxybenzyl)-1-piperazinecarbodithioic acid], the inhibition in vivo at 30 mg/kg in assay [1] (setting [3]) and in assay [1] (setting [4]) was 90 to 100% each time. `Oc1ccc(CN2CCN(C(=S)SCc3ccccc3)CC2)c(O)c1O` [Compound 100, Benzyl 4-(2,3,4-trihydroxybenzyl)-1-piperazinecarbodithioate]: the inhibition in vivo at 30 mg/kg in assay [1] (setting [4]) fell in the range of 30 to 60%. For `CSC(=S)N1CCN(Cc2c(O)c(O)cc3ccc(=O)oc23)CC1` [Compound 106, Methyl 4-(6,7-dihydroxycumarin-8-yl)methyl-1-piperazinecarbodithioate], in assay [2], the “Inhibition ratio (at Final Concentration of Tested Compound) 10^-4 M” value was determined as 89.0% and the “Inhibition ratio (at Final Concentration of Tested Compound) 10^-5 M” value was determined as 88.1%. Turning to `COc1cc(CN2CCN(C(=S)S)CC2)cc(OC)c1OC` [Compound 108, 4-(3,4,5-Trimethoxybenzyl)-1-piperazinecarbodithioic acid], in assay [2] (60 min), the “Inhibition ratio (at Final Concentration of Tested Compound) 10^-4 M” value worked out at 72.6%. In addition, the “Inhibition ratio (at Final Concentration of Tested Compound) 10^-5 M” value in assay [2] is 39.2%. As for `Oc1cc(CN2CCN(C(=S)S)CC2)cc(O)c1O` [Compound 109, 4-(3,4,5-Trihydroxybenzyl)-1-piperazinecarbodithioic acid], in assay [2], the “Inhibition ratio (at Final Concentration of Tested Compound) 10^-4 M” value turned out to be 74.9% and the “Inhibition ratio (at Final Concentration of Tested Compound) 10^-5 M” value came to 24.2%. `CSC(=S)N1CCN(CC2=CC(=O)C=CC2=O)CC1` [Compound 110, Methyl 4-(1,4-benzoquinonylmethyl)-1-piperazinecarbodithioate]: the inhibition in vivo at 30 mg/kg in assay [1] (setting [3]) and in assay [1] (setting [4]) was 90 to 100% each time.

For the compound `COC1=C(OC)C(=O)C(CN2CCN(C(=S)SC)CC2)=C(C)C1=O` [Compound 118, Methyl 4-(5,6-dimethoxy-3-methyl-1,4-benzoquinonylmethyl)-1-piperazinecarbodithioate], the results for the inhibition in vivo at 30 mg/kg in assay [1] (setting [3]) and in assay [1] (setting [4]) were 60 to 90% and 30 to 60%, respectively.
